Test results: ChEMBL document CHEMBL4665653, “VU6005806/AZN-00016130, an advanced M positive allosteric modulator (PAM) profiled as a potential preclinical development candidate” (Bioorg Med Chem Lett, 2019)

Legend:
[1] = molecular target: Muscarinic acetylcholine receptor M3 (Homo sapiens, UniProt P20309); assay: Positive allosteric modulation of human M3 receptor
[2] = Fraction unbound in human plasma; format: ADME, cell-free
[3] = Distribution coefficient, log D of the compound pH 7.5; format: physicochemical; details: octanol/water
[4] = molecular target: Muscarinic acetylcholine receptor M4 (Rattus norvegicus, UniProt P08485); assay: Positive allosteric modulation of rat M4 receptor
Macaca fascicularis = organism: Macaca fascicularis; assay: Positive allosteric modulation of cynomolgus monkey M4 receptor relative to acetylcholine; details: filed as positive allosteric modulator
[5] = molecular target: Muscarinic acetylcholine receptor M3 (Rattus norvegicus, UniProt P08483); assay: Positive allosteric modulation of rat M3 receptor
Cytochrome P450 2D6 = Cytochrome P450 2D6 (Homo sapiens, UniProt P10635); assay: Inhibition of CYP2D6 (unknown origin); format: ADME
Cytochrome P450 1A2 = Cytochrome P450 1A2 (Homo sapiens, UniProt P05177); assay: Inhibition of CYP1A2 (unknown origin); format: ADME
[6] = Oral bioavailability in rat at 3 mg/kg administered as suspension; format: ADME, organism-based; details: in vivo
[7] = Plasma clearance in dog; format: ADME, Canis lupus familiaris; details: read-out: CL(app)
[8] = Volume of distribution at steady state in dog; format: ADME, Canis lupus familiaris; details: in vivo, read-out: Vdss
[9] = Half life in cynomolgus monkey; format: ADME, Macaca fascicularis; details: in vivo
[10] = Unbound brain-to-plasma concentration ratio in Sprague-Dawley rat at 0.1 to 0.2 mg/kg, iv measured after 1.5 hrs; format: ADME, organism-based; details: dose 0.1-0.2 mg/kg, read-out: K(p,uu,brain)
[11] = molecular target: D(2) dopamine receptor (Homo sapiens) (UniProt P14416); assay: Displacement of [3H]Spiperone from full length human dopamine D2S receptor expressed in CHO cells assessed as residual binding level for radioligand at 10 uM after 120 mins by radiometric scintillation analysis relative to control; format: cell-based
[12] = molecular target: D(1A) dopamine receptor (Homo sapiens) (UniProt P21728); assay: Displacement of [3H]-SCH 23390 from recombinant full length human dopamine D1 receptor expressed in CHO cells assessed as residual binding level for radioligand at 10 uM after 120 mins by radiometric scintillation analysis relative to control; format: cell-based
[13] = molecular target: Voltage-dependent N-type calcium channel subunit alpha-1B (Rattus norvegicus) (UniProt Q02294); assay: Displacement of [125I]-w-conotoxin GIVA from N-type calcium channel Cav2.2 in Wistar rat brain membrane assessed as residual binding level for radioligand at 10 uM incubated for 30 mins by radiometric scintillation analysis relative to control; format: cell membranes
[14] = molecular target: L-type calcium channel Cav1.2, benzothiazepine binding site (Rattus norvegicus, UniProt P22002); assay: Displacement of [3H]-Diltiazem from L-type calcium channel Cav1.2 benzothiazepine binding site in Wistar rat brain membrane assessed as residual binding level for radioligand at 10 uM incubated for 180 mins by radiometric scintillation analysis relative to control; format: cell membranes; details: probe [3H]-Diltiazem, read-out: Activity
[15] = molecular target: B1 bradykinin receptor (Homo sapiens) (UniProt P46663); assay: Displacement of [3H]desArg10-KD from human recombinant Bradykinin B1 receptor expressed in CHO-K1 cells assessed as residual binding level for radioligand at 10 uM incubated for 60 mins by radiometric scintillation analysis relative to control; format: cell-based
[16] = molecular target: Alpha-1A adrenergic receptor (Homo sapiens) (UniProt P35348); assay: Displacement of [3H]-Prazosin from human adrenergic alpha 1A receptor expressed in Chem-1 cells assessed as residual binding level for radioligand at 10 uM incubated for 60 mins by radiometric scintillation analysis relative to control; format: cell-based
Rattus norvegicus [17] = organism: Rattus norvegicus; assay: Displacement of [3H]Muscimol from GABAA channel muscimol binding site in Wistar rat brain assessed as residual binding level for radioligand at 10 uM incubated for 10 mins by scintillation counting analysis relative to control; format: tissue-based
Rattus norvegicus [18] = organism: Rattus norvegicus; assay: Displacement of [3H]-Kainic acid from Glutamate ionotropic kainate receptor in Wistar rat brain assessed as residual binding level for radioligand at 10 uM incubated for 120 mins by scintillation counting analysis relative to control; format: tissue-based
Rattus norvegicus [19] = organism: Rattus norvegicus; assay: Displacement of [3H]-MDL105519 from NMDA glutamate receptor glycine binding site in Wistar rat brain assessed as residual binding level for radioligand at 10 uM incubated for 30 mins by scintillation counting analysis relative to control; format: tissue-based
[20] = molecular target: Histamine H1 receptor (Homo sapiens) (UniProt P35367); assay: Displacement of [3H]pyrilamine from full length recombinant human histamine H1 receptor expressed in CHO-K1 cells assessed as residual binding level for radioligand at 10 uM after 180 mins by scintillation counting analysis relative to control; format: cell-based
[21] = molecular target: Histamine H2 receptor (Homo sapiens) (UniProt P25021); assay: Displacement of [125I]aminopotentidine full length recombinant human histamine H2 receptor expressed in CHO-K1 cells assessed as residual binding level for radioligand at 10 uM after 120 mins by scintillation counting analysis relative to control; format: cell-based
[22] = molecular target: Melatonin receptor type 1A (Homo sapiens) (UniProt P48039); assay: Displacement of 2-[1251]-iodomelatonin from human MT1 receptor expressed in CHO-K1 cells assessed as residual binding level for radioligand at 10 uM incubated for180 mins by scintillation counting analysis relative to control; format: cell-based; details: time 180.0 min
[23] = molecular target: Substance-P receptor (Homo sapiens) (UniProt P25103); assay: Displacement of [3H]substance P from recombinant full length human NK1R expressed in CHO cells assessed as residual binding level for radioligand at 10 uM after 90 mins by radiometric scintillation analysis relative to control; format: cell-based
[24] = molecular target: Neuropeptide Y receptor type 1 (Homo sapiens) (UniProt P25929); assay: Displacement of [125I]peptide YY from human Y1 receptor in SK-N-MC cell membrane assessed as residual binding level for radioligand at 10 uM after 120 mins by scintillation counting analysis relative to control
[25] = molecular target: Neuropeptide Y receptor type 2 (Homo sapiens) (UniProt P49146); assay: Displacement of [125I]peptide YY from human Y2 receptor in KAN-TS cell membrane assessed as residual binding level for radioligand at 10 uM after 120 mins by scintillation counting analysis relative to control
hERG (KCNH2) = hERG (KCNH2) (Homo sapiens, UniProt Q12809); assay: Displacement of [3H]-Astemizole from human recombinant full length ERG channel expressed in HEK293 cells assessed as residual binding level for radioligand at 10 uM incubated for 60 mins by scintillation counting analysis relative to control; format: cell-based; details: probe [3H]-Astemizole, read-out: INH
Rattus norvegicus [26] = organism: Rattus norvegicus; assay: Displacement of [3H]-Rolipram from phosphodiesterases PDE4 receptor rolipram binding site in Wistar rat brain assessed as residual binding level for radioligand at 10 uM incubated for 60 mins; format: tissue-based
[27] = molecular target: P2X receptor (Rattus norvegicus) (UniProt P51579+P49653+P51578+Q64663+P47824+P51577+P49654); assay: Displacement of [3H] alpha, beta-Methylene-ATP from P2X receptor in Wistar rat urinary bladder assessed as residual binding level for radioligand at 10 uM incubated for 120 mins by liquid scintillation counting method relative to control; format: tissue-based
[28] = molecular target: Platelet-activating factor receptor (Homo sapiens) (UniProt P25105); assay: Displacement of [3H]-PAF from human PAF receptor assessed as residual binding level for radioligand at 10 uM incubated for 180 mins by scintillation counting analysis relative to control
[29] = Brain to plasma permeability coefficient, Kp in cynomolgus monkey; format: ADME, Macaca fascicularis

Chain of Histamine H2 receptor (Homo sapiens) (P25021 whole entry): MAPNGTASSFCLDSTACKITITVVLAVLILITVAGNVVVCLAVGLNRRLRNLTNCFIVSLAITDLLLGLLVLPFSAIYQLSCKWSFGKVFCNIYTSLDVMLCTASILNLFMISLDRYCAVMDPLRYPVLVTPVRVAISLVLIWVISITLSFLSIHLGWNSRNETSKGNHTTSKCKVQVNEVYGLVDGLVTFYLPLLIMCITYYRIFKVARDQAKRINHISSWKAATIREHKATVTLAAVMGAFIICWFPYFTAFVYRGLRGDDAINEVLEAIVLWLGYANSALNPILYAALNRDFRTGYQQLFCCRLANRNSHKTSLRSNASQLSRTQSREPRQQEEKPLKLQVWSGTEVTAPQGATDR
Chain of Cytochrome P450 1A2 (P05177 whole entry): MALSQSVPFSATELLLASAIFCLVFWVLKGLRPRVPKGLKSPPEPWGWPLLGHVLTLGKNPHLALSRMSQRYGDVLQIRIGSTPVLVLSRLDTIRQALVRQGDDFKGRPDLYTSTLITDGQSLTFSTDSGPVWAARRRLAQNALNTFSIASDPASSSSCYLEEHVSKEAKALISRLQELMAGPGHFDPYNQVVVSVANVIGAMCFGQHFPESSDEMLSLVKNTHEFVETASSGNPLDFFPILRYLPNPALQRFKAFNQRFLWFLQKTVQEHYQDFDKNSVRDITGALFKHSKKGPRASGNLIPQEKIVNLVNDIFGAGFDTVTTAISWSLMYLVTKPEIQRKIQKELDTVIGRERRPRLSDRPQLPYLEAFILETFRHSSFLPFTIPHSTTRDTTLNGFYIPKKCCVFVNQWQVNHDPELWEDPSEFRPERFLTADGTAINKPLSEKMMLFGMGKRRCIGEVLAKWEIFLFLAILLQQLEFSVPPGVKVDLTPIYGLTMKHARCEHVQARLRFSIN
Chain of D(2) dopamine receptor (Homo sapiens) (P14416 whole entry): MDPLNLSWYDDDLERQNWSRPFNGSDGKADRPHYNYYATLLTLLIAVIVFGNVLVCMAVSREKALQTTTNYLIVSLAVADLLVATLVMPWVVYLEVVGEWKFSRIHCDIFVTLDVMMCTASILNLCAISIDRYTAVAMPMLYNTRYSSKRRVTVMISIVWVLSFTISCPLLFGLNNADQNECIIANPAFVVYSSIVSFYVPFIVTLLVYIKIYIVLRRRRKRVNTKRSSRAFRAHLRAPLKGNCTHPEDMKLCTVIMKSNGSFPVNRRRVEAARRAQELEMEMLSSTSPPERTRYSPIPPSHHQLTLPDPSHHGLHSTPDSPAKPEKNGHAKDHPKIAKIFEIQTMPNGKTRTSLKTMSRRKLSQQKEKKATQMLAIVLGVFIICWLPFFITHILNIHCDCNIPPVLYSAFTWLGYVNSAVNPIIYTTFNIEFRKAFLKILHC
Chain of Muscarinic acetylcholine receptor M3 (Homo sapiens, UniProt P20309) (P20309 whole entry): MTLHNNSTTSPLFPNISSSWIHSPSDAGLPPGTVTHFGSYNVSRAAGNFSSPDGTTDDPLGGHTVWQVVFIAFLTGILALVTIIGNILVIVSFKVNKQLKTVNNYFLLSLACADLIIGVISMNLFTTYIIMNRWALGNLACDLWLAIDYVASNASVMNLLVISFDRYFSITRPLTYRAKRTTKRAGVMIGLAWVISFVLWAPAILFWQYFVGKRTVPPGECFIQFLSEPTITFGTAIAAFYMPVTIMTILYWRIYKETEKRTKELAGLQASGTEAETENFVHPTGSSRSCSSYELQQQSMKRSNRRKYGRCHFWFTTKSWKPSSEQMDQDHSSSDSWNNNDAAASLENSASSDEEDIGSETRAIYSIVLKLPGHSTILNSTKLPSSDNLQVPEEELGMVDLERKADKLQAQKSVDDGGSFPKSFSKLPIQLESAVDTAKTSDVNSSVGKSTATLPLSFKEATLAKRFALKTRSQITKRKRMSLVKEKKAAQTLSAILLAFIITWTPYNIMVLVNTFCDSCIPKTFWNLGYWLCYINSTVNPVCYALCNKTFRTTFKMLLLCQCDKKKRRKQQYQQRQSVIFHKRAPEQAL
Chain of D(1A) dopamine receptor (Homo sapiens) (P21728 whole entry): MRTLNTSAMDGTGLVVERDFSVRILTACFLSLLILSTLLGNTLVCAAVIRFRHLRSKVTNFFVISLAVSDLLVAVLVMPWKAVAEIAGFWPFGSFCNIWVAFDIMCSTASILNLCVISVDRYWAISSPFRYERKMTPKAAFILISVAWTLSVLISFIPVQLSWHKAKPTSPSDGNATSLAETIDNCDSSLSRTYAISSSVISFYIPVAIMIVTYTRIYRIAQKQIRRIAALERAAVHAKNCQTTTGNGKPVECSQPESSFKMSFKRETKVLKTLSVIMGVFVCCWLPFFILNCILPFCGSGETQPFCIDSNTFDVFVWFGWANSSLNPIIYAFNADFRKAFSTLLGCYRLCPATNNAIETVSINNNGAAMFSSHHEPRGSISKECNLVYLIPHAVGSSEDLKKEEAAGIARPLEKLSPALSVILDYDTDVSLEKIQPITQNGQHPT
Chain of Neuropeptide Y receptor type 1 (Homo sapiens) (P25929 whole entry): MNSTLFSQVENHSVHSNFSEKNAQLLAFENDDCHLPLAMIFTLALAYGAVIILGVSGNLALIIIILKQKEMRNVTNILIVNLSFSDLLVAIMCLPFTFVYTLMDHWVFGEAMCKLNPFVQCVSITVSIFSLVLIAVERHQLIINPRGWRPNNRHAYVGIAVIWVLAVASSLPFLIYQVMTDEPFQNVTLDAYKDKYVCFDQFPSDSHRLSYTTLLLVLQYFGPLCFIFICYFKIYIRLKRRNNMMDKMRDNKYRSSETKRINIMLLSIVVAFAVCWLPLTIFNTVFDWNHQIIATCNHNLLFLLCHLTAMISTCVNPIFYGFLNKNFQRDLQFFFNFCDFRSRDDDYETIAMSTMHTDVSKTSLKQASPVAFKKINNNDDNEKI
Chain of Voltage-dependent N-type calcium channel subunit alpha-1B (Rattus norvegicus) (Q02294 whole entry, looked up): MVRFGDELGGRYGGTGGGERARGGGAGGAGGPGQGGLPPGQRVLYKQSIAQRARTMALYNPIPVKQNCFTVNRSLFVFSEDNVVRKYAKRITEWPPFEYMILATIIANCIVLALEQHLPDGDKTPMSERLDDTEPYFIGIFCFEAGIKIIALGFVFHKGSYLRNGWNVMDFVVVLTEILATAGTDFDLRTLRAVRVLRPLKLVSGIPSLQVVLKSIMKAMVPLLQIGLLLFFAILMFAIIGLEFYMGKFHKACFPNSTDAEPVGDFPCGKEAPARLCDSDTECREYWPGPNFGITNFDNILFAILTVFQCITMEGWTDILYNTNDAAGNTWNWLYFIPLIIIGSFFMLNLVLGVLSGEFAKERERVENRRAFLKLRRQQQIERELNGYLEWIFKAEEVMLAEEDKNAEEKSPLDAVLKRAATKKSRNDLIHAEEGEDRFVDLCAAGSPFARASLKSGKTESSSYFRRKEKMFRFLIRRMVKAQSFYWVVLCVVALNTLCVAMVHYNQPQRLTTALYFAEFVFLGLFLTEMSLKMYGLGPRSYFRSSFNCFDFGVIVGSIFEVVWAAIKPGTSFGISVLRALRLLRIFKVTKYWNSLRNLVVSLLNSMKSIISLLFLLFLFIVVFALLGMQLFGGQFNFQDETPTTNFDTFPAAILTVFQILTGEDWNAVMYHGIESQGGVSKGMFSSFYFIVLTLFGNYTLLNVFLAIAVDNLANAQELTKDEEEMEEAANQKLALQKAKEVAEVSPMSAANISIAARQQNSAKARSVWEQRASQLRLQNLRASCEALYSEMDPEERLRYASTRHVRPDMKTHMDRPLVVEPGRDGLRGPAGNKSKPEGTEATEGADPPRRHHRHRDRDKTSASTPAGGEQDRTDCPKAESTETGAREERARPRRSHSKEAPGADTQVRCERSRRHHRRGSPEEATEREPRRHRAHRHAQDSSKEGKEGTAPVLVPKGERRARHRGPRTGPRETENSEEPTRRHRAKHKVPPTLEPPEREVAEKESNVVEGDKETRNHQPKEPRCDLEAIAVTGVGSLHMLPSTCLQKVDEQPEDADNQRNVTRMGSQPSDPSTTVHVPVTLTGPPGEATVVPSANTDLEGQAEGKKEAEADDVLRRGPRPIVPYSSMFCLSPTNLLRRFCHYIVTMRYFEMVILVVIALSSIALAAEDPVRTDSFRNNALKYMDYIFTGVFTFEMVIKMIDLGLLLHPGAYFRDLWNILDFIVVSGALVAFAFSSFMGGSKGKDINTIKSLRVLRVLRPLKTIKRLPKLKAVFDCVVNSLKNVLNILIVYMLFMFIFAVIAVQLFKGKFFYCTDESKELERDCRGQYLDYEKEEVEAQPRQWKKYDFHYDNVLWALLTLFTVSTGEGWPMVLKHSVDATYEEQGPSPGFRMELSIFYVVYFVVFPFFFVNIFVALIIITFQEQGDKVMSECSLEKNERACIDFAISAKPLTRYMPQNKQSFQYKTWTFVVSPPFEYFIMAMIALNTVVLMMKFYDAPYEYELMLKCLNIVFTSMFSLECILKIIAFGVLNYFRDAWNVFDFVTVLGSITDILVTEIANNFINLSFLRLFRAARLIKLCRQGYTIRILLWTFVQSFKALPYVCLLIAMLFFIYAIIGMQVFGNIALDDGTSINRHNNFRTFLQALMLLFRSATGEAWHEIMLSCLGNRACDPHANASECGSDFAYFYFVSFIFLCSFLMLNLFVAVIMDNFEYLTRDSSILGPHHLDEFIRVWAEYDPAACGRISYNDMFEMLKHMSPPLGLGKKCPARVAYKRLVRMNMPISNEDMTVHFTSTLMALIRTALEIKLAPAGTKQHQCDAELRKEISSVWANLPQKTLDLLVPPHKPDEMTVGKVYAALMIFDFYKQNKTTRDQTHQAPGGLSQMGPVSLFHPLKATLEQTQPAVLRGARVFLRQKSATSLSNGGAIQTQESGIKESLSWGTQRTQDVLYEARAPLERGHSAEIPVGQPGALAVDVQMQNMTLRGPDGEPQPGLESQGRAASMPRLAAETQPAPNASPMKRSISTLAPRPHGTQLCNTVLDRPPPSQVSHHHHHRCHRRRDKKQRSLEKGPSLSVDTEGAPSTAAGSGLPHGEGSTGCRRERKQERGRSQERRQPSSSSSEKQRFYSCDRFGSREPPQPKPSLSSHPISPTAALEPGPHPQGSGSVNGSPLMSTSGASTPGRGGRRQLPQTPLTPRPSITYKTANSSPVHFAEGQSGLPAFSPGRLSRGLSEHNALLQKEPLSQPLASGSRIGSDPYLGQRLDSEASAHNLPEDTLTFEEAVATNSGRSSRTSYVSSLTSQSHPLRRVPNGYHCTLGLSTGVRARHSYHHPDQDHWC

**Q.** What does the source list for `COc1nnc2sc(C(=O)NC3CN(c4ncc(C(F)(F)F)cn4)C3)c(N)c2c1C`?
**A.** EC50 [1]: > 30 µM; fraction unbound [2]: 0.02; logD [3]: 3.73; EC50 [4]: 0.028 µM; %max (Macaca fascicularis): 57%; EC50 [5]: > 30 µM; IC50 (Cytochrome P450 2D6): > 30 µM; IC50 (Cytochrome P450 1A2): > 30 µM; bioavailability [6]: 57%; clearance [7]: 0.354 L/h/kg; Vd [8]: 0.57 L/kg; half-life [9]: 1.3 h; Kp uu at 1.5 h [10]: 0.35; Activity [11]: > 50%; Activity [12]: > 50%; Activity [13]: > 50%; activity at 3 h, 10 µM [14]: > 50%; Activity [15]: > 50%; Activity [16]: > 50%; Activity (Rattus norvegicus [17]): > 50%; Activity (Rattus norvegicus [18]): > 50%; Activity (Rattus norvegicus [19]): > 50%; Activity [20]: > 50%; Activity [21]: > 50%; Activity [22]: > 50%; Activity [23]: > 50%; Activity [24]: > 50%; Activity [25]: > 50%; activity at 1 h, 10 µM (hERG (KCNH2)): < 25%; Activity (Rattus norvegicus [26]): > 50%; Activity [27]: > 50%; Activity [28]: > 50%; Kp [29]: 1.7
